Data: patent publication US11369114B2, “Antimicrobial coatings comprising organosilane homopolymers” (ALLIED BIOSCIENCE, INC., priority 2014, dated 2022)

System: E. coli
Test: Efficacy of treated coupons after inoculation with E. coli (Examples II-V)
Type: cell-based
Details: Examples IV/V: organosilane with triethanolamine coating first, Titanium Oxide Moieties (TiO2) disposed over it
Method: This Example II disposes the components of the composition onto a target surface in a reverse order. More specifically, Applicants first dispose the Titanium-Oxide Moieties onto the target surface, the aqueous portion of the first spray deposition is evaporated, and then dispose Octadecylaminodimethyltrihydroxysilylpropyl Ammonium Chloride 6 over the earlier-disposed Titanium-Oxide Moieties.
The test coupons of this Example II were prepared and using the Procedure recited immediately hereinbelow. In various embodiments, the treated coupons were stored for at least four (4) weeks prior to inoculation with various organisms.
This Example III simultaneously disposes a mixture of the organosilane and the Titanium-Oxide Moieties onto the surface of a plurality of test coupons. More specifically in this Example III, the simultaneously dispose the Titanium-Oxide Moieties and Octadecylaminodimethyltrihydroxysilylpropyl Ammonium Chloride 6 onto a surface of each test coupon.
The test coupons of this Example III were prepared and using the Procedure recited immediately hereinbelow. In various embodiments, the treated coupons were stored for at least four (4) weeks prior to inoculation with various organisms.
The test coupons of this Example IV were prepared and using the Procedure recited immediately hereinbelow. […]

Compound	efficacy of treated coupons (self-decontaminating surface)
NCCC[Si](O)(O)O [3-aminopropyltrihydroxysilane]	generates a self-decontaminating surface
O[Si](O)(O)CCCCl [3-chloropropyltrihydroxysilane]	generates a self-decontaminating surface
